Results on two compounds are retold here after patent publication US20070099217A1, “Method for stress evaluation” (priority 2005, published 2007).

For one data set, the system named is Per1 gene. In words: expression of clock genes in liver of mouse given corticosterone (quantitative real time RT-PCR). In kind it is in vivo. On the procedure: This example is intended to investigate the amount of expression of Per1 in a mouse which was given corticosterone.
A mouse was given a prescribed amount of corticosterone, and one hour later, it had its liver extracted. The collected liver was homogenized for quantitative real time RT-PCR in the same way as in Example 2, and the amount of expression of clock genes was determined.
The abscissa represents the dosage (mg/kg) of corticosterone per 1 kg of the mouse's weight. “PBS” denotes the control which was given a phosphate buffer solution in place of corticosterone. “fold induction” on the ordinate represents the amount of expression of Per1 gene (in terms of a relative value, with the value for PBS being 1).
The abscissa represents each clock gene. “fold induction” on the ordinate represents the amount of expression of each clock gene in terms of a relative value, with the value for PBS being 1.

In data set [1] the test system is promoter region of Per1 gene. The data set is described as follows: luciferase assay of Per1 promoter constructs in NIH3T3 cells with dexamethazone. The class given is cell-based. The note with it: dexamethazone 0.1 μM, 36 hours after transfection. The method, then:
The second step was luciferase assay to investigate what part of the promoter region of Per1 is associated with stress response.
Luciferase is an enzyme protein that catalyzes bioluminescence. It can be used to estimate the level at which the expression of a specific gene is induced in the following manner. First, a recombinant gene is prepared in which the promoter region of a specific gene is joined to a gene that codes luciferase. Second, the recombinant gene is incorporated into cultured cells. Third, the gene is allowed to express so that the luciferase is allowed to express. Fourth, the intensity of bioluminescence due to luciferase is determined to obtain the level at which luciferase expresses.
An experiment was carried out based on the foregoing principle. It involves preparation of several kinds of DNA differing in the length of the promoter region of Per1 and determination of the expression level of Per1 in the presence of dexamethazone. […] Incidentally, dexamethazone is synthetic glucocorticoid. It is known that the amount of glucocorticoid in blood increases when a living organism experiences stress.
The procedure of the experiment is outlined below. • (1) The first step is to prepare DNAs (P1F, P1K, and P1S), the first one having the entire length of the promoter region of Per1 gene and the second and third ones having the partial length of the promoter region of Per1 gene, with the upstream side cut off. […] The subcultured cells are collected and dissolved 36 hours after transfection. • (4) The fourth step is to prepare a solution from the dissolved cells and measurement of the luminescence intensity by means of Dual Luciferase Assay System (from Promega). […]
FIG. 4C is a graph showing the results of luciferase assay. The abscissa (Relative Luciferase Activity) represents the intensity of luminescence in terms of relative value (%) compared with the intensity of luminescence assigned as 100 of the cultured cells incorporated with the entire length of the promoter region of Per1 gene.
“P1F” denotes the intensity of luminescence from cultured cells incorporated with the entire length of the promoter region of Per1 gene. “P1K” denotes the intensity of luminescence from cultured cells incorporated with the partial length of 3806 bases upstream from the transcription starting region of Per1 gene. “P1S” denotes the intensity of luminescence from cultured cells incorporated with the partial length of 2369 bases upstream from the transcription starting region of Per1 gene. “Vector” denotes the intensity of luminescence from cultured cells (control) incorporated with a blank vector. […] “Dex” and “EtOH” respectively denote the intensity of luminescence from a sample containing dexamethazone and a sample (control) containing ethanol. […]

Data set [2] deals with glucocorticoid receptor (GR) joining to GRE resembling sequence of Per1 gene (Mus musculus, UniProt P06537). The note with it: NIH3T3 cells, 1 hr after treatment with dexamethazone, anti-GR antibody.
glucocorticoid receptor (GR) joining to GRE resembling sequence of Per1 gene, sequence (P06537 whole entry): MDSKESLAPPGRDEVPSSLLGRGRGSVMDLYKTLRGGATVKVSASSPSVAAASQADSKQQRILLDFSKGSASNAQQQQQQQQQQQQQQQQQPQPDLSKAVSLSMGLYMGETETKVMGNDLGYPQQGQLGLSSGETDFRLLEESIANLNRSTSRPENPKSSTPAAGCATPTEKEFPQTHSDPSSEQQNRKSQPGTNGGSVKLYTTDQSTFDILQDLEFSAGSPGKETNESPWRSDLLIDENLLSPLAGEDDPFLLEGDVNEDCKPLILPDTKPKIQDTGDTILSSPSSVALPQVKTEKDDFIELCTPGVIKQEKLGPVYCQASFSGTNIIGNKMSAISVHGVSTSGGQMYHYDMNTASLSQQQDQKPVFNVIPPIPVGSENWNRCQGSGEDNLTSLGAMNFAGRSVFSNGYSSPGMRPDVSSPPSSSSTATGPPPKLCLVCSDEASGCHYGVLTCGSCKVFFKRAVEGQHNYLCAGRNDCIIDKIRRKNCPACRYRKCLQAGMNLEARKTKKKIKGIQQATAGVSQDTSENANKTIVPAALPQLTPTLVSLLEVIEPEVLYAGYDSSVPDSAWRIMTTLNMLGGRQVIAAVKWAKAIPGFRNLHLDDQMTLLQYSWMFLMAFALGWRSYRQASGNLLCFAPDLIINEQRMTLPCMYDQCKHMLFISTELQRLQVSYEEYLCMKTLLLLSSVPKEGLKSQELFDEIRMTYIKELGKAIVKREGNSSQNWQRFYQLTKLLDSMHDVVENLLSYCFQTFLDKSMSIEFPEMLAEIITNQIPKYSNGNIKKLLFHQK
Protocol: First, NIH3T3 cells were treated with dexamethazone to induce the expression of mPer1 gene. The cells were given formaldehyde to fix the binding of protein and chromatin DNA. The chromatin DNA was fragmented by sonication and the resulting fragments underwent immunoprecipitation with anti-GR antibody. The resulting precipitates (as a composite of anti-GR antibody, GR, and chromatin DNA joining to GR) were recovered. The recovered precipitates were heated to remove the DNA-protein crosslinking. The desired sequence was amplified by PCR and the PCR product was identified by electrophoresis.
In other words, the primer was so designed as to specifically amplify the region near the two GRE resembling sequences.
In FIG. 5B, “IP: α-GR” indicates the desired sequence detected by semi-quantitative RT-PCR after immunoprecipitation by means of anti-GR antibody. “IP: αa-normal rabbit IgG” indicates the sequence (control) detected from immunoprecipitation by means of rabbit IgG. In addition, “input” indicates the desired sequence (control) detected by semi-quantitative RT-PCR without immunoprecipitation. “ChIP primer” in the lowermost row indicates the sequence of the primer used for semi-quantitative RT-PCR or the desired sequence which has been amplified. […]

Molecules are shown by their SMILES.

For the compound `C[C@]12C[C@H](O)[C@H]3[C@@H](CCC4=CC(=O)CC[C@@]43C)[C@@H]1CC[C@@H]2C(=O)CO` [corticosterone], the “amount of expression of each clock gene (fold induction, PBS being 1)” value with Per1 gene (one hour after corticosterone 10 mg/kg, FIG. 7B) is “increases the amount of expression of only Per1 gene among clock genes”. Further, the “amount of expression of Per1 gene (fold induction, PBS being 1) versus dosage” value in the data set on Per1 gene (one hour after corticosterone, dosage in mg/kg, FIG. 7A) was “increases as the dosage of corticosterone increases”.

Regarding `C[C@@H]1C[C@H]2[C@@H]3CCC4=CC(=O)C=C[C@]4(C)[C@@]3(F)[C@@H](O)C[C@]2(C)[C@@]1(O)C(=O)CO` [dexamethazone], in data set [1] (P1F with GRE resembling sequence mutated in its downstream, FIG. 4D), the “intensity of luminescence, P1FpM” value is recorded as “high intensity of luminescence”. Besides, the “intensity of luminescence, P1FdM” value in data set [1] (P1F with GRE resembling sequence mutated in its upstream, FIG. 4D) is on record as “a little lower intensity of luminescence”. Moreover, the “Relative Luciferase Activity (intensity of luminescence), P1K” value in data set [1] (P1K promoter (3806 bases upstream, two GRE resembling sequences), vs EtOH, FIG. 4C) is on record as “high intensity of luminance”. The “Relative Luciferase Activity (intensity of luminescence), P1S” value in data set [1] (P1S promoter (2369 bases upstream, one GRE resembling sequence), vs EtOH, FIG. 4C) was “certain intensity of luminance”. In data set [2] (FIG. 5B), the “detection of dGRE and pGRE sequences by semi-quantitative RT-PCR after immunoprecipitation” value is “the desired band was detected”. For the same compound, the “amount of dGRE and pGRE DNA amplified (%input) by quantitative real time RT-PCR after immunoprecipitation” value in data set [2] (FIG. 5C) is on record as “greatly amplifies”.
